In PubChem BioAssay AID248 (DTP/NCI, 2004):
Toxic doses and inconclusive results are not listed.

System: L1210 leukemia ip in BDF1 mice, survival T/C
Experiment: NCI In Vivo Anticancer Drug Screen. Data for tumor model L1210 Leukemia (intraperitoneal) in B6D2F1 (BDF1) mice
Conditions: endpoint: mean survival time, higher = longer survival
Procedure, shortened: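 Value reflects the ratio of survival in compound-treated mice to survival in vehicle-treated controls, with both groups carrying the same transplanted tumor.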

[1] = dose: 100.0 mg/kg/injection, schedule: Q01DX009 (ip), vehicle: saline with Tween-80
[2] = dose: 100.0 mg/kg/injection, schedule: Q04DX003 (ip), vehicle: saline with Tween-80
[3] = dose: 200.0 mg/kg/injection, schedule: Q01DX009 (ip), vehicle: saline with Tween-80
[4] = dose: 200.0 mg/kg/injection, schedule: Q04DX003 (ip), vehicle: saline with Tween-80
[5] = dose: 400.0 mg/kg/injection, schedule: Q01DX009 (ip), vehicle: saline with Tween-80
[6] = dose: 400.0 mg/kg/injection, schedule: Q04DX003 (ip), vehicle: saline with Tween-80
[7] = dose: 100.0 mg/kg/injection, schedule: Q01DX001 (ip), vehicle: carboxymethylcellulose (CMC)
[8] = dose: 200.0 mg/kg/injection, schedule: Q01DX001 (ip), vehicle: carboxymethylcellulose (CMC)
[9] = dose: 400.0 mg/kg/injection, schedule: Q01DX001 (ip), vehicle: carboxymethylcellulose (CMC)
[10] = dose: 100.0 mg/kg/injection, schedule: Q04DX002 (ip), vehicle: Klucel (hydroxypropylcellulose) (HPC)
[11] = dose: 200.0 mg/kg/injection, schedule: Q04DX002 (ip), vehicle: Klucel (hydroxypropylcellulose) (HPC)
[12] = dose: 400.0 mg/kg/injection, schedule: Q04DX002 (ip), vehicle: Klucel (hydroxypropylcellulose) (HPC)
[13] = dose: 100.0 mg/kg/injection, schedule: Q04DX003 (ip), vehicle: saline
[14] = dose: 6.25 mg/kg/injection, schedule: Q01DX009 (ip), vehicle: saline
[15] = dose: 12.5 mg/kg/injection, schedule: Q01DX009 (ip), vehicle: saline
[16] = dose: 25.0 mg/kg/injection, schedule: Q04DX003 (ip), vehicle: saline

CCCCC(C)(O)C(F)(F)F (stereo not drawn)
T/C (dose: 100.0 mg/kg/injection, schedule: Q01DX001 (ip), vehicle: steriod suspending solution): 96 % of control | T/C (dose: 200.0 mg/kg/injection, schedule: Q01DX001 (ip), vehicle: steriod suspending solution): 91 % of control | T/C (dose: 400.0 mg/kg/injection, schedule: Q01DX001 (ip), vehicle: steriod suspending solution): 100 % of control

CC1CN=C(N)NC1=O (stereo not drawn)
T/C (dose: 100.0 mg/kg/injection, schedule: Q01DX Z (ip), vehicle: saline): 104 % of control | T/C (dose: 200.0 mg/kg/injection, schedule: Q01DX Z (ip), vehicle: saline): 119 % of control

COC(=O)CC(c1cccc2ccccc12)c1cccc2ccc3ccccc3c12 (stereo not drawn)
T/C (dose: 100.0 mg/kg/injection, schedule: Q04DX003 (ip), vehicle: DMSO): 92 % of control | T/C (dose: 200.0 mg/kg/injection, schedule: Q04DX003 (ip), vehicle: DMSO): 94 % of control | T/C (dose: 400.0 mg/kg/injection, schedule: Q04DX003 (ip), vehicle: DMSO): 89 % of control

O=C1NC(=S)N/C1=C/c1ccc2c(c1)CCC2
T/C [1]: 112 % of control | T/C [2]: 95 % of control | T/C [3]: 94 % of control | T/C [4]: 101 % of control | T/C [5]: 102 % of control | T/C [6]: 87 % of control

C(=C\c1ccccc1)/C=N/Nc1nnc(N/N=C/C=C/c2ccccc2)c2ccccc12
T/C (dose: 50.0 mg/kg/injection, schedule: Q01DX001 (ip), vehicle: carboxymethylcellulose (CMC)): 102 % of control | T/C [7]: 94 % of control | T/C [8]: 102 % of control | T/C [9]: 90 % of control

O=[N+]([O-])c1ccc(NN=C(C2CC2)C2CC2)c([N+](=O)[O-])c1
T/C (dose: 100.0 mg/kg/injection, schedule: Q01DX001 (ip), vehicle: other): 95 % of control | T/C (dose: 200.0 mg/kg/injection, schedule: Q01DX001 (ip), vehicle: other): 98 % of control | T/C (dose: 400.0 mg/kg/injection, schedule: Q01DX001 (ip), vehicle: other): 88 % of control

CN(C)CCCNc1c2ccccc2nc2ccc(F)cc12
T/C (dose: 5.0 mg/kg/injection, schedule: Q01DX001 (ip), vehicle: saline): 100 % of control | T/C (dose: 10.0 mg/kg/injection, schedule: Q01DX001 (ip), vehicle: saline): 96 % of control | T/C (dose: 20.0 mg/kg/injection, schedule: Q01DX001 (ip), vehicle: saline): 107 % of control

Cc1cccn(C(=O)c2ccccc2)c1=N
T/C [7]: 100 % of control | T/C [8]: 96 % of control | T/C [9]: 102 % of control

NCCSC1(O)C(=O)c2ccccc2C1=O
T/C (dose: 37.5 mg/kg/injection, schedule: Q04DX003 (ip), vehicle: saline): 97 % of control | T/C (dose: 75.0 mg/kg/injection, schedule: Q01DX001 (ip), vehicle: saline): 104 % of control | T/C (dose: 75.0 mg/kg/injection, schedule: Q04DX003 (ip), vehicle: saline): 116 % of control | T/C (dose: 150.0 mg/kg/injection, schedule: Q01DX001 (ip), vehicle: saline): 110 % of control | T/C (dose: 150.0 mg/kg/injection, schedule: Q04DX003 (ip), vehicle: saline): 111 % of control

O=C(NC1CCCCC1)C(=S)NC1CCCCC1
T/C (dose: 100.0 mg/kg/injection, schedule: Q01DX009 (ip), vehicle: Klucel (hydroxypropylcellulose) (HPC)): 93 % of control | T/C (dose: 200.0 mg/kg/injection, schedule: Q01DX009 (ip), vehicle: Klucel (hydroxypropylcellulose) (HPC)): 101 % of control | T/C (dose: 400.0 mg/kg/injection, schedule: Q01DX009 (ip), vehicle: Klucel (hydroxypropylcellulose) (HPC)): 98 % of control

Cc1ccc(S(N)(=O)=O)cc1
T/C [2]: 98 % of control | T/C [4]: 98 % of control | T/C [6]: 96 % of control

CC(C)COC(=O)c1ccc(NC(=O)Nc2ccccc2)cc1
T/C [1]: 93 % of control | T/C [2]: 92 % of control | T/C [3]: 88 % of control | T/C [4]: 88 % of control | T/C [5]: 97 % of control | T/C [6]: 87 % of control

CCCC1=NNC(=O)C1
T/C [7]: 100 % of control | T/C [8]: 100 % of control | T/C [9]: 96 % of control

OB(O)c1ccc(F)cc1
T/C (dose: 100.0 mg/kg/injection, schedule: Q04DX003 (ip), vehicle: acetone): 101 % of control | T/C (dose: 200.0 mg/kg/injection, schedule: Q04DX003 (ip), vehicle: acetone): 98 % of control | T/C (dose: 400.0 mg/kg/injection, schedule: Q04DX003 (ip), vehicle: acetone): 97 % of control

Cc1c2oc3c(C)ccc(C(=O)NCCC(C)C)c3nc-2c(C(=O)NCCC(C)C)c(N)c1=O
T/C (dose: 10.0 mg/kg/injection, schedule: Q01DX001 (ip), vehicle: carboxymethylcellulose (CMC)): 93 % of control

Cc1cccc(C)c1OC(=O)Nc1ccc(Cl)cc1
T/C [10]: 96 % of control | T/C [11]: 110 % of control | T/C [12]: 96 % of control

CC(=O)Nc1ncc(/C=C/c2ccc([N+](=O)[O-])cc2)c(NC(C)=O)n1
T/C (dose: 100.0 mg/kg/injection, schedule: Q01DX001 (ip), vehicle: Klucel (hydroxypropylcellulose) (HPC)): 100 % of control | T/C (dose: 200.0 mg/kg/injection, schedule: Q01DX001 (ip), vehicle: Klucel (hydroxypropylcellulose) (HPC)): 87 % of control | T/C (dose: 400.0 mg/kg/injection, schedule: Q01DX001 (ip), vehicle: Klucel (hydroxypropylcellulose) (HPC)): 87 % of control

Cc1cccc(Cl)c1NC(=O)C(Cl)Cl
T/C [10]: 113 % of control | T/C [11]: 107 % of control | T/C [12]: 110 % of control

O=C(Nc1ccc(C2=NCCN2)cc1)c1ccc(F)c(C(=O)Nc2ccc(C3=NCCN3)cc2)c1
T/C (dose: 2.25 mg/kg/injection, schedule: Q01DX Z (ip), vehicle: water): 105 % of control | T/C (dose: 4.5 mg/kg/injection, schedule: Q01DX Z (ip), vehicle: water): 107 % of control | T/C (dose: 9.0 mg/kg/injection, schedule: Q01DX Z (ip), vehicle: water): 116 % of control | T/C (dose: 37.5 mg/kg/injection, schedule: Q01DX Z (ip), vehicle: water): 154 % of control | T/C (dose: 75.0 mg/kg/injection, schedule: Q01DX Z (ip), vehicle: water): 189 % of control | T/C (dose: 150.0 mg/kg/injection, schedule: Q01DX Z (ip), vehicle: water): 241 % of control | T/C (dose: 300.0 mg/kg/injection, schedule: Q01DX Z (ip), vehicle: water): 229 % of control

CC12CCC(C)(O)C(CC3=C1CCc1ccccc13)C2=O (stereo not drawn)
T/C [13]: 107 % of control | T/C (dose: 200.0 mg/kg/injection, schedule: Q04DX003 (ip), vehicle: saline): 104 % of control | T/C (dose: 400.0 mg/kg/injection, schedule: Q04DX003 (ip), vehicle: saline): 106 % of control

O=C(O)C1C(C(=O)O)C23CC2(C(=O)O)C2(C(=O)O)CCC3=C3CCCC312 (stereo not drawn)
T/C [14]: 109 % of control | T/C (dose: 6.25 mg/kg/injection, schedule: Q04DX003 (ip), vehicle: saline): 104 % of control | T/C (dose: 12.5 mg/kg/injection, schedule: Q01DX001 (ip), vehicle: saline): 114 % of control | T/C [15]: 111 % of control | T/C (dose: 12.5 mg/kg/injection, schedule: Q04DX003 (ip), vehicle: saline): 104 % of control | T/C (dose: 25.0 mg/kg/injection, schedule: Q01DX001 (ip), vehicle: saline): 98 % of control | T/C [16]: 103 % of control

CCc1nc(-c2ccccc2)c(-c2ccccc2)[nH]1
T/C [1]: 90 % of control | T/C [3]: 98 % of control | T/C [5]: 87 % of control

O=S(=O)(Nc1ccc(CCc2ccc(NS(=O)(=O)c3ccccc3)cc2)cc1)c1ccccc1
T/C [1]: 95 % of control | T/C [3]: 98 % of control | T/C [5]: 98 % of control

CC1CCc2cc3c4ccccc4n(C)c3cc2C1 (stereo not drawn)
T/C (dose: 75.0 mg/kg/injection, schedule: Q01DX001 (ip), vehicle: carboxymethylcellulose (CMC)): 107 % of control | T/C (dose: 150.0 mg/kg/injection, schedule: Q01DX001 (ip), vehicle: carboxymethylcellulose (CMC)): 109 % of control | T/C (dose: 300.0 mg/kg/injection, schedule: Q01DX001 (ip), vehicle: carboxymethylcellulose (CMC)): 109 % of control

CN(C)CCCN1c2ccccc2Sc2c(Cl)cc(Cl)cc21
T/C [14]: 97 % of control | T/C [15]: 103 % of control | T/C (dose: 25.0 mg/kg/injection, schedule: Q01DX009 (ip), vehicle: saline): 101 % of control | T/C [16]: 94 % of control | T/C (dose: 50.0 mg/kg/injection, schedule: Q01DX009 (ip), vehicle: saline): 104 % of control | T/C (dose: 50.0 mg/kg/injection, schedule: Q04DX003 (ip), vehicle: saline): 113 % of control | T/C [13]: 118 % of control
